Source: patent US20250382305A1 (PTC THERAPEUTICS, INC., priority 2022, published 2025)

Legend:
[1] = system: ATXN3 pre-mRNA; test: RT-qPCR Assay to Quantify Exon 4 Skipping in ATXN3 pre-mRNA in Cells; assay type: cell-based; conditions: percent exon 4 skipping in ATXN3 pre-mRNA, RT-qPCR of cell lysates; average IC50
Procedure, shortened: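 IC50 derives from a dose-response fit of percent exon 4 skipping, quantified by RT-qPCR on crude lysates. Compounds tested as 7-point 3.16-fold dilutions in duplicate; cells (10,000/well) were exposed for 24 h at 37 °C before lysis.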

[2] = system: Total ATXN3 (tATXN3) protein; test: Endogenous Total ATXN3 (tATXN3) Protein Assay (MSD immunoassay of cell lysates); assay type: cell-based; conditions: average IC50, total ATXN3 protein in cell lysate after 48 h with compound (Table 1)
Procedure, shortened: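 By electrochemiluminescent MSD sandwich immunoassay (mouse monoclonal capture, rabbit monoclonal and SULFO-TAG anti-rabbit detection), endogenous ATXN3 was quantified in lysates of cells treated 48 h at 37° C at 10,000 cells/well. Treatment used a 7-point 3.16-fold duplicate dilution series, with average IC50 grouped into star categories.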

Row | IC50 [1] | IC50 [2] | Structure (SMILES)
1 | 0.03 to 0.3 µM | 0.03 to 0.3 µM | Cc1c([C@H]2CCCCC[C@@H]2N)sc2c(NCc3cccs3)cc(Cl)nc12 [Compound 81, 2-((1S,2S)-2-aminocycloheptyl)-5-chloro-3-methyl-N-(thiophen-2-ylmethyl)thieno[3,2-b]pyridin-7-amine]
2 | 0.3 to 1 µM | 0.3 to 1 µM | Cc1c([C@@H]2CCCCC[C@@H]2N)sc2c(NCc3cccs3)cc(Cl)nc12 [Compound 82, 2-((1R,2S)-2-aminocycloheptyl)-5-chloro-3-methyl-N-(thiophen-2-ylmethyl)thieno[3,2-b]pyridin-7-amine]
3 | > 1 µM | > 1 µM | Cc1c([C@@H]2CCCCC[C@H]2N)sc2c(NCc3cccs3)cc(Cl)nc12 [Compound 83, 2-((1R,2R)-2-aminocycloheptyl)-5-chloro-3-methyl-N-(thiophen-2-ylmethyl)thieno[3,2-b]pyridin-7-amine]
4 | > 1 µM | > 1 µM | Cc1c([C@H]2CCCCC[C@H]2N)sc2c(NCc3cccs3)cc(Cl)nc12 [Compound 84, 2-((1S,2R)-2-aminocycloheptyl)-5-chloro-3-methyl-N-(thiophen-2-ylmethyl)thieno[3,2-b]pyridin-7-amine]
5 | > 1 µM | > 1 µM | N[C@@H]1CCCCC[C@@H]1c1cc2nc(Cl)cc(NCc3cccs3)c2s1 [Compound 88, 2-((1S,2R)-2-aminocycloheptyl)-5-chloro-N-(thiophen-2-ylmethyl)thieno[3,2-b]pyridin-7-amine]
6 | > 1 µM | > 1 µM | N[C@H]1CCCCC[C@H]1c1cc2nc(Cl)cc(NCc3cccs3)c2s1 [Compound 89, 2-((1R,2S)-2-aminocycloheptyl)-5-chloro-N-(thiophen-2-ylmethyl)thieno[3,2-b]pyridin-7-amine]
7 | 0.3 to 1 µM | 0.3 to 1 µM | N[C@H]1CCCCC[C@@H]1c1cc2nc(Cl)cc(NCc3cccs3)c2s1 [Compound 90, 2-((1S,2S)-2-aminocycloheptyl)-5-chloro-N-(thiophen-2-ylmethyl)thieno[3,2-b]pyridin-7-amine]
8 | > 1 µM | > 1 µM | N[C@H]1CCCCCC[C@H]1c1sc2c(NCc3cccs3)cc(Cl)nc2c1Cl [Compound 91, 2-((1R,2S)-2-aminocyclooctyl)-3,5-dichloro-N-(thiophen-2-ylmethyl)thieno[3,2-b]pyridin-7-amine]
9 | > 1 µM | > 1 µM | Cc1c([C@@H]2CCCCCC[C@H]2N)sc2c(NCc3cccs3)cc(Cl)nc12 [Compound 92, 2-((1R,2R)-2-aminocyclooctyl)-5-chloro-3-methyl-N-(thiophen-2-ylmethyl)thieno[3,2-b]pyridin-7-amine]
10 | > 1 µM | > 1 µM | Cc1c([C@H]2CCCCCC[C@H]2N)sc2c(NCc3cccs3)cc(Cl)nc12 [Compound 93, 2-((1S,2R)-2-aminocyclooctyl)-5-chloro-3-methyl-N-(thiophen-2-ylmethyl)thieno[3,2-b]pyridin-7-amine]
11 | 0.03 to 0.3 µM | 0.3 to 1 µM | Cc1c([C@H]2CCCCCC[C@@H]2N)sc2c(NCc3cccs3)cc(Cl)nc12 [Compound 94, 2-((1S,2S)-2-aminocyclooctyl)-5-chloro-3-methyl-N-(thiophen-2-ylmethyl)thieno[3,2-b]pyridin-7-amine]
12 | > 1 µM | > 1 µM | Cc1c([C@@H]2CCCCCC[C@@H]2N)sc2c(NCc3cccs3)cc(Cl)nc12 [Compound 95, 2-((1R,2S)-2-aminocyclooctyl)-5-chloro-3-methyl-N-(thiophen-2-ylmethyl)thieno[3,2-b]pyridin-7-amine]
13 | 0.03 to 0.3 µM | 0.03 to 0.3 µM | N[C@H]1CCCCCC[C@@H]1c1sc2c(NCc3cccs3)cc(Cl)nc2c1Cl [Compound 96, 2-((1S,2S)-2-aminocyclooctyl)-3,5-dichloro-N-(thiophen-2-ylmethyl)thieno[3,2-b]pyridin-7-amine]
14 | > 1 µM | > 1 µM | N[C@@H]1CCCCCC[C@H]1c1sc2c(NCc3cccs3)cc(Cl)nc2c1Cl [Compound 97, 2-((1R,2R)-2-aminocyclooctyl)-3,5-dichloro-N-(thiophen-2-ylmethyl)thieno[3,2-b]pyridin-7-amine]
15 | > 1 µM | > 1 µM | N[C@@H]1CCCCCC[C@@H]1c1sc2c(NCc3cccs3)cc(Cl)nc2c1Cl [Compound 98, 2-((1S,2R)-2-aminocyclooctyl)-3,5-dichloro-N-(thiophen-2-ylmethyl)thieno[3,2-b]pyridin-7-amine]
16 | 0.03 to 0.3 µM | 0.03 to 0.3 µM | N[C@H]1CCCCCC[C@@H]1c1sc2c(NCc3cccs3)cc(Cl)nc2c1Br [Compound 99, 2-((1S,2S)-2-aminocyclooctyl)-3-bromo-5-chloro-N-(thiophen-2-ylmethyl)thieno[3,2-b]pyridin-7-amine]
17 | > 1 µM | > 1 µM | N[C@@H]1CCCCCC[C@H]1c1sc2c(NCc3cccs3)cc(Cl)nc2c1Br [Compound 100, 2-((1R,2R)-2-aminocyclooctyl)-3-bromo-5-chloro-N-(thiophen-2-ylmethyl)thieno[3,2-b]pyridin-7-amine]

Row | IC50 [1] | IC50 [2] | Structure (SMILES)
18 | > 1 µM | > 1 µM | N[C@@H]1CCCCCC[C@@H]1c1sc2c(NCc3cccs3)cc(Cl)nc2c1Br [Compound 101, 2-((1S,2R)-2-aminocyclooctyl)-3-bromo-5-chloro-N-(thiophen-2-ylmethyl)thieno[3,2-b]pyridin-7-amine]
19 | > 1 µM | > 1 µM | N[C@H]1CCCCCC[C@H]1c1sc2c(NCc3cccs3)cc(Cl)nc2c1Br [Compound 102, 2-((1R,2S)-2-aminocyclooctyl)-3-bromo-5-chloro-N-(thiophen-2-ylmethyl)thieno[3,2-b]pyridin-7-amine]
20 | > 1 µM | > 1 µM | N[C@H]1CCCCCC[C@@H]1c1cc2nc(Cl)cc(NCc3cccs3)c2s1 [Compound 103, 2-((1S,2S)-2-aminocyclooctyl)-5-chloro-N-(thiophen-2-ylmethyl)thieno[3,2-b]pyridin-7-amine]
21 | > 1 µM | > 1 µM | N[C@H]1CCCCCC[C@H]1c1cc2nc(Cl)cc(NCc3cccs3)c2s1 [Compound 104, 2-((1R,2S)-2-aminocyclooctyl)-5-chloro-N-(thiophen-2-ylmethyl)thieno[3,2-b]pyridin-7-amine]
22 | > 1 µM | > 1 µM | N[C@@H]1CCCCCC[C@H]1c1cc2nc(Cl)cc(NCc3cccs3)c2s1 [Compound 105, 2-((1R,2R)-2-aminocyclooctyl)-5-chloro-N-(thiophen-2-ylmethyl)thieno[3,2-b]pyridin-7-amine]
23 | > 1 µM | > 1 µM | N[C@@H]1CCCCCC[C@@H]1c1cc2nc(Cl)cc(NCc3cccs3)c2s1 [Compound 106, 2-((1S,2R)-2-aminocyclooctyl)-5-chloro-N-(thiophen-2-ylmethyl)thieno[3,2-b]pyridin-7-amine]
24 | 0.3 to 1 µM | 0.3 to 1 µM | Cc1c([C@H]2CCC[C@@H]2N)sc2c(NCc3ccccc3)cc(Cl)nc12 [Compound 107, 2-((1S,2S)-2-aminocyclopentyl)-N-benzyl-5-chloro-3-methylthieno[3,2-b]pyridin-7-amine]
25 | ≤ 0.03 µM | ≤ 0.03 µM | N[C@H]1CCCO[C@@H]1c1sc2c(NCc3ccccc3)cc(Cl)nc2c1Br [Compound 108, 2-((2S,3S)-3-aminotetrahydro-2H-pyran-2-yl)-N-benzyl-3-bromo-5-chlorothieno[3,2-b]pyridin-7-amine]
26 | 0.03 to 0.3 µM | 0.03 to 0.3 µM | Cc1c([C@@H]2OCCC[C@H]2N)sc2c(NCc3ccccc3)cc(Cl)nc12 [Compound 109, 2-((2R,3R)-3-aminotetrahydro-2H-pyran-2-yl)-N-benzyl-5-chloro-3-methylthieno[3,2-b]pyridin-7-amine]
27 | ≤ 0.03 µM | 0.03 to 0.3 µM | N[C@H]1CCCO[C@@H]1c1sc2c(NCc3ccccc3)cc(Cl)nc2c1Cl [Compound 110, 2-((2S,3S)-3-aminotetrahydro-2H-pyran-2-yl)-N-benzyl-3,5-dichlorothieno[3,2-b]pyridin-7-amine]
28 | 0.3 to 1 µM | > 1 µM | N[C@H]1CCC[C@H]1c1cc2nc(Cl)cc(NCc3cccs3)c2s1 [Compound 111, 2-((1R,2S)-2-aminocyclopentyl)-5-chloro-N-(thiophen-2-ylmethyl)thieno[3,2-b]pyridin-7-amine]
29 | > 1 µM | > 1 µM | N[C@@H]1CCC[C@H]1c1cc2nc(Cl)cc(NCc3cccs3)c2s1 [Compound 112, 2-((1R,2R)-2-aminocyclopentyl)-5-chloro-N-(thiophen-2-ylmethyl)thieno[3,2-b]pyridin-7-amine]
30 | > 1 µM | > 1 µM | N[C@@H]1CCCO[C@H]1c1sc2c(NCc3ccccc3)cc(Cl)nc2c1Br [Compound 113, 2-((2R,3R)-3-aminotetrahydro-2H-pyran-2-yl)-N-benzyl-3-bromo-5-chlorothieno[3,2-b]pyridin-7-amine]
31 | > 1 µM | > 1 µM | N[C@@H]1CCC[C@H]1c1sc2c(NCc3ccco3)cc(Cl)nc2c1Cl [Compound 114, 2-((1R,2R)-2-aminocyclopentyl)-3,5-dichloro-N-(furan-2-ylmethyl)thieno[3,2-b]pyridin-7-amine]
32 | ≤ 0.03 µM | ≤ 0.03 µM | N[C@H]1CCCO[C@@H]1c1sc2c(NCc3ccco3)cc(Cl)nc2c1Br [Compound 115, 2-((2S,3S)-3-aminotetrahydro-2H-pyran-2-yl)-3-bromo-5-chloro-N-(furan-2-ylmethyl)thieno[3,2-b]pyridin-7-amine]
33 | ≤ 0.03 µM | ≤ 0.03 µM | N[C@H]1CCCO[C@@H]1c1sc2c(NCc3ccco3)cc(Cl)nc2c1Cl [Compound 116, 2-((2S,3S)-3-aminotetrahydro-2H-pyran-2-yl)-3,5-dichloro-N-(furan-2-ylmethyl)thieno[3,2-b]pyridin-7-amine]
